This note sets out measurements from patent publication US10669238B2, “Irreversible bruton's tyrosine kinase inhibitor” (HEFEI INSTITUTES OF PHYSICAL SCIENCE, CHINESE ACADEMY OF …, priority 2016, dated 2020).

Experiment [1] concerns the target BTK protein kinase (Homo sapiens, UniProt Q06187). Nature of the experiment: In vitro enzymatic activity against BTK (ADP-Glo). The class given is biochemical. The note with it: for IC50: compound with BTK 4 hours at room temperature, ATP 10 μM, 37° C. 1 hour, values in nM. Summed up:
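BTK (1.5 ng/μL enzyme solution) was preincubated with compound (final 10 μM to 0.003 μM) for 4 h at room temperature. Reaction ran 1 h at 37 °C with 10 μM ATP and 0.2 μg/μL poly(Glu,Tyr) 4:1 (final). ADP formed was measured by ADP-Glo luminescence, and IC50 was obtained by curve plotting.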
Background: In ADP-Glo the light output rises with the ADP produced.

The subject of experiment [2] is diffuse large B-cell lymphoma cell lines TMD8. Nature of the experiment: Cell proliferation (Cell Titer-Glo), TMD8. Format: cell-based. Conditions: Homo sapiens, TMD8, 72 h, read-out: Effects on cell proliferation (GI50). (In ATP-based viability assays light output follows the ATP content of the culture.)
Description: The following cells were adopted in the example: acute myelocytic leukemia cell strains (acute myelocytic leukemia, AML) HL-60, B-lymphoma cell Ramos, colon cancer cells HCT116, leukemic cells K562, B-cell lymphoma cells U2932, diffuse large B-cell lymphoma cell line OCI-LY10, diffuse histiocytic lymphoma cells SU-DHL-2, diffuse large B-cell lymphoma cell lines TMD8, leukemia cell OCI-AML-3, acute promyelocytic leukemia cell line NB-4 (Lu+), MDS-RAEB (myelodysplastic syndrome—excessive blasts) cell lines SKM-1, human leukocyte leukemia cells HEL, acute myeloid leukemia cell lines (acute myelocytic leukemia, AML) U937, acute myeloid leukemia cell lines (acute myelocytic leukemia, AML) MOLM14, acute myeloid leukemia cell lines (acute myelocytic leukemia, AML) MOLM13, acute myeloid leukemia cell lines (acute myelocytic leukemia, AML) M-07e, acute myeloid leukemia cell lines (acute myelocytic leukemia, AML) MV4-11, acute myeloid leukemia cell lines (acute myelocytic leukemia, AML) MOLM16, diffuse large B-cell lymphoma cell lines Pfeiffer, multiple myeloma cell lines (multiple myeloma) RPM18226, bone marrow plasma cell tumor cells AMO-1, mouse pro-B cells BaF3, all purchased from ATCC.
The test system of experiment [3] is B-cell lymphoma cells U2932. Nature of the experiment: Cell proliferation (Cell Titer-Glo), U2932. The note with it: Homo sapiens; U2932, 72 hours; read-out: Effects on cell proliferation (GI50). The class given is cell-based. The method, then:
(§1) The selectivity of Compound 1 in inhibiting the proliferation of cancer cells was further evaluated by testing the effect of Btk inhibitors on the growth of cancer cells. […]
(§2) In this example different concentrations (0.000508 μM, 0.00152 μM, 0.00457 μM, 0.0137 μM, 0.0411 μM, 0.123 μM, 0.370 μM, 1.11 μM, 3.33 μM, 10 μM) of Compound 1 and Compound 6 were respectively added into the above cells which were then cultured for 72 hours. The number of viable cells was determined via quantitative determination of ATP in living cells by using Cell Titer-Glo® (Promega, the USA) Chemical Luminescent Cell Viability Assay kit.

In experiment [4] the test system is acute myeloid leukemia cell lines U937. Nature of the experiment: Cell proliferation (Cell Titer-Glo), U937. Format: cell-based. The note with it: Homo sapiens, U-937; U937, 72 hours; read-out: Effects on cell proliferation (GI50). How it is done: as §1, §2
In experiment [5] the test system is acute myeloid leukemia cell lines MOLM13. Put plainly: Cell proliferation (Cell Titer-Glo), MOLM13. Format: cell-based. The note with it: Homo sapiens, MOLM-13; MOLM13, 72 hours; read-out: Effects on cell proliferation (GI50). How it is done:
as §1, §2

In experiment [6] the test system is acute promyelocytic leukemia cell line NB-4 (Lu+). Nature of the experiment: Cell proliferation (Cell Titer-Glo), NB4. The note with it: NB4, 72 hours; read-out: Effects on cell proliferation (GI50). Format: cell-based. How it is done: as §1, §2
The subject of experiment [7] is multiple myeloma cell lines RPM18226. Nature of the experiment: Cell proliferation (Cell Titer-Glo), RPMI8226. The note with it: Homo sapiens, RPMI-8226; RPMI8226, 72 hours; read-out: Effects on cell proliferation (GI50). The class given is cell-based. How it is done: as §1, §2
Experiment [8] deals with diffuse large B-cell lymphoma cell line OCI-LY10. Nature of the experiment: Cell proliferation (Cell Titer-Glo), OCI-LY10. Format: cell-based. Conditions: Homo sapiens; OCI-LY10, 72 hours; read-out: Effects on cell proliferation (GI50). How it is done:
as §1, §2

The test system of experiment [9] is diffuse histiocytic lymphoma cells SU-DHL-2. Put plainly: Cell proliferation (Cell Titer-Glo), SU-DHL-2. Format: cell-based. The note with it: Homo sapiens; SU-DHL-2, 72 hours; read-out: Effects on cell proliferation (GI50). How it is done: as §1, §2
The test system of experiment [10] is mouse pro-B cells BaF3. Nature of the experiment: Cell proliferation (Cell Titer-Glo), WT-BaF3. The class given is cell-based. The note with it: WT-BaF3, 72 hours, read-out: Effects on cell proliferation (GI50). The method, then: as §1, §2
The target of experiment [11] is T1, TEL-EGFR/T790-BaF3 cells (stably expressing TEL-EGFR-C797S point mutation kinase) (Homo sapiens, UniProt P00533, C797S).
T1 construct: expressed in transfected cells; host or cells: mouse BaF3 cells, retroviral MSCV-Puro
T1 sequence (P00533 712-979 C797S limits assumed): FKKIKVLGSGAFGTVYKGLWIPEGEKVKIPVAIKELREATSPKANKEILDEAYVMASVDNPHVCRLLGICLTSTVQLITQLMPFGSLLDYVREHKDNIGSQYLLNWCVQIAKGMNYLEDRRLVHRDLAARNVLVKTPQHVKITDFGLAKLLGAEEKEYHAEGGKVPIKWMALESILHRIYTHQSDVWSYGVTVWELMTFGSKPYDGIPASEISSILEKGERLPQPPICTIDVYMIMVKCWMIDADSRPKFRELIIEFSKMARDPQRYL
Put plainly: Cell proliferation (Cell Titer-Glo), BaF3-tel-EGFR-C797S. Format: cell-based. Conditions: BaF3-tel-EGFR-C797S (mouse BaF3 cells), 72 hours; read-out: Effects on cell proliferation (GI50). The method, then: as §1, §2

Experiment [12] addresses T2, TEL-LYN-BaF3 cells (stably expressing TEL-LYN activated kinase) (Homo sapiens, UniProt P07948).
T2 construct: expressed in transfected cells; host or cells: mouse BaF3 cells, retroviral MSCV-Puro; the other entry of the earlier key: ETV6 (P41212, Transcription factor ETV6)
Nature of the experiment: Cell proliferation (Cell Titer-Glo), BaF3-tel-LYN. The class given is cell-based. Conditions: BaF3-tel-LYN (mouse BaF3 cells), 72 hours; read-out: Effects on cell proliferation (GI50). How it is done: as §1, §2

By IC50 is commonly meant the concentration that inhibits the measured activity by half. Higher therefore signals lower potency.

Sequence of BTK protein kinase (Q06187 whole entry): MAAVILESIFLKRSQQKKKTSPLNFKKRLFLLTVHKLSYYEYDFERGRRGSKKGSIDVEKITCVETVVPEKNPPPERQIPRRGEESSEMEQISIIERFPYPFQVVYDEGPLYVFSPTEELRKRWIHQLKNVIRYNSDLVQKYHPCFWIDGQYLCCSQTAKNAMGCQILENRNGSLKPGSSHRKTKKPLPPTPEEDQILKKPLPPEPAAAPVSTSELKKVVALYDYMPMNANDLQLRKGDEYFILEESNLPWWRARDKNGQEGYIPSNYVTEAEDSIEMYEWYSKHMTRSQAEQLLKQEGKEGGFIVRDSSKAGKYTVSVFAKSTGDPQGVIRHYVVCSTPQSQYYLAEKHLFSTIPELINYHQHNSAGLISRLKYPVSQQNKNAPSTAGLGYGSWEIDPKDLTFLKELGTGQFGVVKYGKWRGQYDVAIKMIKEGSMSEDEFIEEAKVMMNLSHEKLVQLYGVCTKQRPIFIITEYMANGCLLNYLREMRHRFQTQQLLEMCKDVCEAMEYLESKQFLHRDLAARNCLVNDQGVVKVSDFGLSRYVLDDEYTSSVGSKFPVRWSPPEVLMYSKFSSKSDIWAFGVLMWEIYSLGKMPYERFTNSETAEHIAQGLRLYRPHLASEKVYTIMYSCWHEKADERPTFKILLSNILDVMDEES
T2 sequence (P07948 247-501 limits assumed): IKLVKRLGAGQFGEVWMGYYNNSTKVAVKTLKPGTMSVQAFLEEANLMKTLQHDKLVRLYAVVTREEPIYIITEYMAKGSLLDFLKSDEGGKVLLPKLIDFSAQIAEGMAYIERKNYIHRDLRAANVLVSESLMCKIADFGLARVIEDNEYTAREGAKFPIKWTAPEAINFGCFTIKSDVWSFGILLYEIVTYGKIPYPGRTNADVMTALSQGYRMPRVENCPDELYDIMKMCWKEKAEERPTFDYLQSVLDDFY

On to `CCC(=O)Nc1cc(Nc2cc(-c3cccc(NC(=O)c4ccc(C(C)(C)C)cc4)c3C)cn(C)c2=O)ccc1C(=O)N1CCOCC1` [Compound 6, N-(3-(5-((3-propanamide-4-(morpholin-4-carbonyl)phenyl)amino)-1-methyl-6-oxo-1,6-dihydropyridin-3-yl)-2-methylphenyl)-4-(tert-butyl)benzamide], for which the “inhibitory effects on BTK protein” value in experiment [1] (ADP-Glo assay, in words) is on record as “relatively strong inhibitory effects”. Further, the IC50 in experiment [1] was 207 nM. The GI50 is 750 nM in [2]; more than 10000 nM in experiment [3]; more than 10 µM in experiment [4]; 4 µM in [5]; more than 10 µM in [6]; 4.7 µM in experiment [7]. Besides, the GI50 in [8] was 3 to 10 µM; in experiment [9] it was more than 10000 nM; in experiment [10] it was 6.3 µM; in experiment [11], 1800 nM; in experiment [12], 6.8 µM.

On to `C=CC(=O)Nc1cc(Nc2cc(-c3cccc(NC(=O)c4ccc(C(C)(C)C)cc4)c3C)cn(C)c2=O)ccc1C(=O)N1CCOCC1` [Compound 1, N-(3-(5-((3-acrylamide-4-(morpholin-4-carbonyl)phenyl)amino)-1-methyl-6-oxo-1,6-dihydropyridin-3-yl)-2-methylphenyl)-4-(tert-butyl)benzamide], for which the midpoint of inhibition in experiment [1], the IC50, lay at 7.09 nM. In addition, the GI50 in experiment [2] was determined as 1 nM; in experiment [3], 2400 nM; in [4], 4.8 µM; in [5] it was 2.2 µM; in experiment [6], 6.6 µM; in [7] it was 2.9 µM. The GI50 in experiment [8] was 3.4 µM; in [9] it was 3000 nM; in experiment [10] it was 7.9 µM; in experiment [11] it was 2500 nM; in experiment [12], 6.3 µM.
